The values below are quoted from earlier work in paper PMC5862601 (Oncotarget, 2018).

One may read the EC50 as the midpoint of the concentration-response curve.

Where two headings read alike, the source gives them in different places.

The test system of series [1] is HUVEC Human Umbilical Vein Endothelial Cells. Also on record: method as in Feoktistov I, et al. Circ Res. 2002; 90: 531-538. [21]. The note with it: HUVEC (A2A > A2B); ref Feoktistov I, et al. Circ Res. 2002; 90: 531-538. [21]; cited from earlier work.
The subject of series [2] is Ovarian cancer cell line SKOV-3. The arrangement: method as in Hajiahmadi S, et al. Res Pharm Sci. 2015; 10: 43-51. [24]. The note with it: ref Hajiahmadi S, et al. Res Pharm Sci. 2015, 10: 43-51. [24]; cited from earlier work.
Series [3] relates to HMEC-1 human microvascular endothelial cell line. Also on record: method as in Feoktistov I, et al. Circ Res. 2002; 90:531-538. [21]. The note with it: ref Feoktistov I, et al. Circ Res. 2002, 90:531-538. [21]; cited from earlier work.
For the next series, the system named is Jurkat-T cells. The note with it: cited from earlier work; for EC50: Jurkat-T, ref Van der Ploeg et al. Naunyn Schmiedeberg’s Arch Pharmacol. 1996, 353: 250-260. [22].
Series [4] deals with T24 human bladder carcinoma cells. The note with it: cited from earlier work; for EC50: T24 human bladder carcinoma.
The subject of series [5] is Ovarian cancer cell line Caov-4. The arrangement: method as in Hajiahmadi S, et al. Res Pharm Sci. 2015; 10: 43-51. [24]. The note with it: ref Hajiahmadi S, et al. Res Pharm Sci. 2015, 10: 43-51. [24]; cited from earlier work.
The subject of series [6] is Human prostatic carcinoma cells PC-3. Also on record: method as in Wei Q, et al. Purinergic Signal. 2013; 9: 271-280. [23]. Particulars: ref Wei Q, et al. Purinergic Signal. 2013, 9: 271-280. [23]; cited from earlier work.
Another series concerns the target A2B receptor (CHO-A2B). The note with it: ref De Filippo E, et al. Purinergic Signal. 2016;12: 313-329. [11]; cited from earlier work.
Series [7] concerns Breast cancer cell line MDA-MB-231. The arrangement: method as in Panjehpour M, et al. Br J Pharmacol. 2005; 145: 211-218. [25]. Particulars: ref Panjehpour M, et al. Br J Pharmacol. 2005, 145: 211-218. [25]; cited from earlier work.
Series [8] deals with Ovarian cancer cell line OVCAR-3. The arrangement: method as in Hajiahmadi S, et al. Res Pharm Sci. 2015; 10: 43-51. [24]. Particulars: ref Hajiahmadi S, et al. Res Pharm Sci. 2015, 10: 43-51. [24]; cited from earlier work.
Series [9] concerns isolated perfused mouse heart. The note with it: A2B knockout vs wildtype mice, ref [51]; cited from earlier work.
In series [10] the test system is PC12 (rat) phaeochromocytoma cells. Particulars: cited from earlier work.
Series [11] concerns HEK293 (native) cells, A2B ≥ A2A. The note with it: cited from earlier work.
In series [12] the test system is prostate cancer cell lines (A2B > A2A). Particulars: three prostate cancer cell lines (A2B > A2A); ref [13]; cited from earlier work.
A further series has as its system HEK-A2B cells, A2B ≥ A2A. The note with it: cited from earlier work.
Series [13] concerns human ovarian cancer cell lines (A2B > A2A). The note with it: three human ovarian cancer cell lines (A2B > A2A); ref [12]; cited from earlier work.
[14] abbreviates: ref Gao Z, et al. Biochem Pharmacol. 2014, 90: 297-306. [17].
Where [15] appears, read: ref van der Ploeg et al. Naunyn Schmiedeberg’s Arch Pharmacol. 1996, 353: 250-260. [22], read-out: EC50.

In the case of `CCNC(=O)[C@H]1O[C@@H](n2cnc3c(N)nc(NCCc4ccc(CCC(=O)O)cc4)nc32)[C@H](O)[C@@H]1O` [CGS-21680, (2-p-[2-carboxyethyl]phenethylamino)-5´-N-ethylcarboxamidoadenosine], the EC50 in series [1] was 0.469 µM; in [2], more than 100 µM; in series [3], more than 100 µM; with Jurkat-T cells, more than 100 µM; in series [4] (setting [14]), more than 10 µM; in series [4] (ref Phelps PT, et al. Eur J Pharmacol. 2006, 536: 28-37. [20]), more than 10 µM. Moreover, the EC50 in series [5] was more than 100 µM; in series [6], more than 10 µM; on A2B receptor (CHO-A2B), 31.1 µM; in series [7], more than 10 µM; in series [8], more than 100 µM; in series [10] (ref Hide I, et al. Mol Pharmacol. 1992, 41: 352-359. [26], read-out: EC50), 0.064 µM. In addition, the EC50 was 0.09 µM in [10] (setting [15]); more than 30 µM in [11] (ref Cooper J, et al. Br J Pharmacol. 1997, 122: 546-550. [18]); more than 10 µM in series [11] (setting [14]). Also, the “activity in cAMP assays” value in the series on Jurkat-T cells (Jurkat-T cells (A2B ≥ A2A), ref [47]) was “nearly inactive”. Besides, the “induction of cAMP accumulation” value in series [4] (T24 (A2B > A2A), ref [45]) was “inactive”. Further, the “increase in coronary flow” value in series [9] is recorded as “increased coronary flow in A2B knockout (KO) mice to a significantly higher degree than in wildtype (WT) mice”.
Take `CCNC(=O)[C@H]1O[C@@H](n2cnc3c(N)ncnc32)[C@H](O)[C@@H]1O` [NECA, 5′-N-ethylcarboxamidoadenosine]: the 50% effective concentration (EC50) in series [1] is 0.95 µM; in series [2], 18 µM; in series [3] it was 14 µM; with Jurkat-T cells, 5.8 µM; in [5], 9.12 µM; in [6] it was 0.469 µM. In addition, the EC50 is 1.13 µM in series [7]; 6.6 µM in [8]; 0.021 µM with HEK-A2B cells, A2B ≥ A2A (setting [14]); 0.2 µM in the series with HEK-A2B cells, A2B ≥ A2A (ref Hinz S, et al. J Pharmacol Exp Ther. 2014, 3: 427-436. [15]); 0.0286 µM with HEK-A2B cells, A2B ≥ A2A (ref Linden J, et al. Mol Pharmacol. 1999, 56: 705-713. [19]); 0.066 µM in series [10] (high-affinity component, ref Hide I, et al. Mol Pharmacol. 1992, 41: 352-359. [26], read-out: EC50, biphasic: KH). For the same compound, the EC50 in series [10] (low-affinity component, ref Hide I, et al. Mol Pharmacol. 1992, 41: 352-359. [26], read-out: EC50, biphasic: KL) is 7.5 µM; in [10] (setting [15]), 0.2 µM. Moreover, the “induction of cAMP accumulation” value in [12] and in series [13] was “concentration-dependently induced cAMP accumulation” each time. Besides, the “increase in coronary flow” value in series [9] was “increased coronary flow in A2B knockout (KO) mice to a significantly higher degree than in wildtype (WT) mice”.
